Several values for one entry are separate records, joined by “and”; a condition that tells them apart may be missing. Equal entries are not always repeated. Entries after “also recorded” stand apart in the source; their conditions may differ.
B1: ALK peptide p456-65 (ALPIEYGPLV) (peptide)
peptide: ALPIEYGPLV
notes: Downstream of the kinase domain
B2: ALK peptide p281-89 (LAMLDLLHV) (peptide)
peptide: LAMLDLLHV
B3: ALK peptide p376-85 (GVLLWEIFSL) (peptide)
peptide: GVLLWEIFSL
notes: also called p375-86
B4: ALK peptide p282-90 (AMLDLLHVA) (peptide)
peptide: AMLDLLHVA
B5: ALK peptide p280-89 (SLAMLDLLHV) (peptide)
peptide: SLAMLDLLHV
notes: Lies within the ALK kinase domain
B6: ALK peptide p377-85 (VLLWEIFSL) (peptide)
peptide: VLLWEIFSL

How the values were obtained:
[1] = test system: HLA-A*0201 monochain transgenic (HHD) mice; assay: In vivo immunogenicity of ALK-derived peptides in HHD mice (51Cr-release on peptide-pulsed RMA-S/HHD cells); conditions: for R/T HHD mice (responder versus tested mice): 100 μg peptide s.c. in IFA, responder = specific lysis at least 15% above lysis of unloaded RMA-S/HDD; for % lysis of peptide-loaded RMA-S/HHD cells: E:T ratio 60:1, maximal lysis observed for each responder mouse
healthy donor PBLs = assay: Stimulation of ALK-specific CTLs from healthy donor PBLs; format: cell-based, human; conditions: three donors tested per peptide; lysis of peptide loaded T2 cells and NPM/ALK-positive lymphoma lines
Description: Blood was collected from HLA-A*0201 normal volunteer donors. PBMC were isolated from whole blood by Ficoll/Hypaque (Pharmacia, Uppsala, Sweden) density gradient centrifugation. Dendritic cells (DCs) were generated according to the protocol of Sallusto and Lanzavecchia (Sallusto F. et al., (1994) J Exp Med. 179: 1109-1118). Adherent monocyte-enriched peripheral blood mononuclear cells (PBMCs) were cultured in RPMI 1640 medium supplemented with 10% FCS, 20 ng/ml recombinant human interleukin (IL)-4 (R&D Systems, Minneapolis, Minn.) and 800 U/ml recombinant human granulocyte-macrophage colony-stimulating factor (GM-CSF) (Sandoz, Basel, Switzerland). On day 5 of culture, 10 ng/ml recombinant human tumor necrosis factor (TNF)-α (Knoll, Ludwigshafen, Germany) was added to the medium. After 40 hrs, the surface phenotype of monocyte-derived DCs was determined by single-color flow cytometry using the following mAbs: fluorescein-conjugated anti-CD1a ([…], Torino, Italy), anti-CD86 (CALTAG, Burlingame, Calif.), anti-CD83 (CALTAG, Burlingame, Calif.), anti-CD14 (Becton Dickinson) and rhodamine-conjugated anti-CD80 (Becton Dickinson). DCs were used to prime autologous PBL as follows. DCs were pulsed with 10 μM peptide for 2 hrs at 37° C., irradiated at 30 Gy and added to autologous PBLs at a ratio variable from 3:1 to 6:1 (PBL:DC). PBLs (36×10^6 total) were cultured at 1,5×10^6 cells/2ml of Culture Medium (CM: 50% RPMI 1640/50% X-VIVO (BioWhittaker, […], Mass.)) supplemented with 10% of heat-inactivated autologous plasma and 10 ng/ml IL-7 (R&D Systems, Minneapolis, Minn.) in the presence of autologous peptide-loaded DCs. At day 10-12 of culture, lymphocytes were restimulated with irradiated (30 Gy) autologous peptide-loaded monocytes in CM supplemented with 10% of heat-inactivated autologous plasma. After 24-48 hrs 10 IU/ml IL-2 (Chiron Co., Emeryville, Calif.) and 10 ng/ml IL-7 was added to the CM. Lymphocytes were then restimulated weekly in the same way. Starting from the forth round of stimulation, the specificity of the resulting T-cell lines was evaluated weekly in a cytolytic assay. When any specific activity was detected, CD8+ T-cells were isolated from the bulk culture by CD4+ cells negative depletion using mAb-coated beads (Dynal Dynabeads, Oxoid, Oslo, Norway) and the CTL lines were maintained in culture in RPMI 1640 containing 10% human AB serum supplemented with 50 U/ml IL-2 in the presence of irradiated (70 Gy) PBMCs as feeder. To prime ALK-specific lymphocytes, peptide-pulsed autologous dendritic cells (DCs) derived from peripheral blood mononuclear cells (PBMCs) were used after their in vitro maturation was confirmed by flow cytometric analysis of DC-specific cell surface markers. After a 3-4 week cycle of restimulation T lymphocyte specificity for ALK peptides was evaluated by determining antigen-restricted lysis of peptide loaded T2 cells (FIG. 1A) and NPM/ALK-positive lymphoma cell lines (FIG. 1B).

[2] = molecular target: HLA-A*0201/peptide complexes (Homo sapiens, UniProt P04439, D140Y/D185E/D98H/E176V/E277Q/G131W/G231S/I119V/I121R/I166T/I218V/L300P/L318F/N151K/N90K/P208A/P217A/Q86G/Q94H/R138H/R169H/T345S); assay: HLA-A*0201/peptide complex stability on T2 cells (DC50); format: binding; conditions: 100 μM peptide overnight, Brefeldin A, 37° C.
Description: To assess the HLA-A*0201/peptide complex stability, T2 cells (10^6/ml) were incubated overnight with 100 μM of each peptide in serum free RPMI 1640 supplemented with 100 ng/ml of human β2m at 37° C. Cells were then washed four times to remove free peptides, incubated for 1 hr with 10 μg/ml of Brefeldin A (Sigma-Aldrich, France) in order to block cell surface expression of newly synthesized HLA-A*0201 molecules, washed and incubated at 37° C. for 0, 2, 4, 6, or 8 hours. Subsequently, cells were stained with anti-HLA-A2.1 mAb BB7.2. For each time point, peptide induced HLA-A*0201 expression was calculated as: mean fluorescence value of peptide incubated T2 cells/mean fluorescence value T2 cells in the absence of the peptide.

anti-ALK specific CTLs = assay: IFN-γ release assay with anti-ALK CTL lines (ELISA); format: cell-based, human; conditions: for Peptide concentration giving maximal IFN-γ production: titration on T2 cells, peptide-specific CTL lines; for IFN-γ released by p280-89 CTLs: p280-89 loaded autologous LCL
[3] = test system: FM3 (melanoma), HCT-116 (colon carcinoma), MCF-7 (breast carcinoma); assay: 51Cr release lysis of HLA-A2.1+/ALK- tumor lines by peptide-specific CTLs; format: cell-based, human; conditions: FM3, HCT-116, MCF-7
Description: (§1) Cytolytic activity was measured in a conventional 4-hrs ^51Cr release assay. A 10-fold excess of unlabeled K562 cells was added to offset NK activity. Target cells and E:T ratio are indicated in each figure. Specific lysis was determined according to the following formula: % specific lysis=cpm (sample−spontaneous)/cpm (total−spontaneous)×100. HLA-A*0201 blocking of T-cell activity (lysis and/or citokine release) was performed by preincubating target cells with the anti-HLA-A2 mAb CR11.351.
(§2) Thus, it can be concluded that ALK peptide induced CTLs efficiently lyse lymphoma targets, in a HLA-A2 restricted fashion, by relevant antigen-specific recognition.

[4] = test system: SK-N-SH (HLA-A2.1-/ALK+) and NB-5 (HLA-A2.1+/ALK-) cell lines; assay: 51Cr release lysis of control neuroblastoma lines by peptide-specific CTLs; format: cell-based, human
Description: as §1, with “(sample-spontaneous)/cpm (total-spontaneous)×100.” for “(sample−spontaneous)/cpm (total−spontaneous)×100.”, “CR11.351. […] Because p280-89 and p376-85 peptides lie within the kinase domain, which is present in both native and translocated ALK, we used neuroblastoma cell lines as targets in cytotoxic experiments to further verify the natural processing of these two epitopes.” for “CR11.351.”

[5] = test system: ALCL lymphoma cell lines SU-DHL1 and SUP-M2; assay: 51Cr release lysis of NPM/ALK-expressing ALCL cell lines by peptide-specific CTLs; format: cell-based, human; conditions: SU-DHL1 and SUP-M2, HLA-A2.1+
Description: as §1, §2

[6] = test system: neuroblastoma cell line IMR-32; assay: 51Cr release lysis of HLA-A2.1+/ALK+ neuroblastoma cells by peptide-specific CTLs; format: cell-based, human; conditions: IMR-32, treated with INF-γ before use
Description: as §1, with “(sample-spontaneous)/cpm (total-spontaneous)×100.” for “(sample−spontaneous)/cpm (total−spontaneous)×100.”, “CR11.351. […] Because p280-89 and p376-85 peptides lie within the kinase domain, which is present in both native and translocated ALK, we used neuroblastoma cell lines as targets in cytotoxic experiments to further verify the natural processing of these two epitopes.” for “CR11.351.”

[7] = test system: ALCL lymphoma cell lines SU-DHL1 and SUP-M2; conditions: cited from earlier work
[8] = molecular target: T1, HLA-A*0201 molecules on TAP-deficient T2 cells (human); assay: T2 cell HLA-A*0201 stabilisation, 100 uM peptide, flow cytometry with mAb BB7.2; mean of 4 experiments ± SEM
T1 construct: Peptide-receptive class I molecule on T2 cells; also called HLA-A2.1; HLA-A2
Description: T2 cells were incubated with 100 μM of peptide in serum-free RPMI 1640 supplemented with 5 μg/ml of human β₂m (Fluka, Buchs, Germany) for 18 hrs at 37° C.

[9] = molecular target: T1, HLA-A*0201 molecules on TAP-deficient …; assay: T2 cells loaded with 100 uM peptide, Brefeldin A, flow cytometry with BB7.2 over 0-8 h
Text: Subsequently, cells were stained with anti-HLA-A2.1 mAb BB7.2.

Molecule	R/T HHD mice (responder versus tested mice) [1]	Donor response to peptide stimulation (specific CD8 reactivity) (healthy donor PBLs)	DC50, half-life of disassociation of HLA-A*02.01/peptide complexes [2]	% lysis of peptide-loaded RMA-S/HHD cells [1]	FI (Fluorescence Index) [8]	also measured
ALPIEYGPLV (listed as Homo sapiens) [p456-65]	2/6	At least one out of the three donors tested were found to be responders	2 to 4 h			
AMLDLLHVA (listed as Homo sapiens) [p282-90]	3/6	No specific CD8 reactivity was detected	4 to 6 h	80% and 56% and 50%		
GVLLWEIFSL (listed as Homo sapiens) [p376-85]	3/6	At least one out of the three donors tested were found to be responders		24% and 15%		IFN-γ released by p376-85 CTLs (anti-ALK specific CTLs; donor one, p376-85 pulsed T2 cells, 5 μM peptide): 674 IU/ml; Peptide concentration giving maximal IFN-γ production (anti-ALK specific CTLs): 100 nM; Lysis of HLA-A2.1+/ALK- tumor lines by peptide-specific CTLs [3]: no activity was detected; also recorded: No lysis above background level; Lysis of HLA-A2.1-/ALK+ or HLA-A2.1+/ALK- neuroblastoma lines by peptide-specific CTLs [4]: No lysis was detected; Lysis of NPM/ALK-expressing ALCL cell lines by peptide-specific CTLs [5]: efficiently recognize and lyse; also recorded: killed these tumor lines; Lysis of HLA-A2.1+/ALK+ neuroblastoma cells by peptide-specific CTLs [6]: efficiently lysed; Lysis of HLA-A2.1+/ALK+ neuroblastoma cells by peptide-specific CTLs ([6]; listed as p375-86): recognize and kill
LAMLDLLHV (listed as Homo sapiens) [p281-89]	2/6	No specific CD8 reactivity was detected		42% and 34%		
SLAMLDLLHV (listed as Homo sapiens) [p280-89]	3/6	At least one out of the three donors tested were found to be responders				IFN-γ released by p280-89 CTLs (anti-ALK specific CTLs; donor three, 5 μM peptide): 750 IU/ml; IFN-γ released by p280-89 CTLs (anti-ALK specific CTLs; donor two, 5 μM peptide): 445 IU/ml; Peptide concentration giving maximal IFN-γ production (anti-ALK specific CTLs): 10 nM; Lysis of HLA-A2.1+/ALK- tumor lines by peptide-specific CTLs [3]: no activity was detected; also recorded: No lysis above background level; Lysis of HLA-A2.1-/ALK+ or HLA-A2.1+/ALK- neuroblastoma lines by peptide-specific CTLs [4]: No lysis was detected; Lysis of NPM/ALK-expressing ALCL cell lines by peptide-specific CTLs [5]: efficiently recognize and lyse; also recorded: killed these tumor lines; Lysis of HLA-A2.1+/ALK+ neuroblastoma cells by peptide-specific CTLs [6]: recognize and kill; also recorded: efficiently lysed; CTL cytotoxicity against NPM/ALK-positive lymphoma cell lines [7]: stimulate CTL cytotoxicity
SLTANMKEV (listed as Homo sapiens) [p621-29]	2/6	No specific CD8 reactivity was detected	4 to 6 h	63% and 53%		
VLLWEIFSL (listed as Homo sapiens) [p377-85]	3/6	At least one out of the three donors tested were found to be responders	4 to 6 h			
B1					4.2 ratio (sample / irrelevant-peptide control)	
B2					3.5 ratio (sample / irrelevant-peptide control)	DC50 (half-life of dissociation of HLA-A*0201/peptide complexes) [9]: 2 hs (hours)
B3					2.8 ratio (sample / irrelevant-peptide control)	DC50 (half-life of dissociation of HLA-A*0201/peptide complexes) [9]: 6 hs (hours)
B4					5.4 ratio (sample / irrelevant-peptide control)	
B5					5.6 ratio (sample / irrelevant-peptide control)	DC50 (half-life of dissociation of HLA-A*0201/peptide complexes) [9]: 4 hs (hours)
B6					3 ratio (sample / irrelevant-peptide control)	
